Drawing on patent US10301305B2 (priority 2014, dated 2019), this text covers IC50 for 17 compounds.

Assay type in all cases: biochemical
One experiment concerns the target S. aureus DltA (Staphylococcus aureus (strain NCTC 8325 / PS 47), UniProt Q2FZW6). Kind of experiment: in vitro DltA activity assay (luminescence), S. aureus DltA. The following applies: recombinant DltA, 30 min pre-incubation, 0.5 mM D-Alanine, 0.5-5 μM ATP; read-out: S. aureus DltA IC50. The protocol:
(§1) The effect of the compounds of the invention on DltA enzymes has been based on the measure of their inhibition of DltA activity in vitro. To this end, recombinant proteins DltA were expressed and purified after cloning of the genes of S. aureus, E. faecalis, E. faecium and S. agalactiae as described thereafter. The capacity of the compounds of the invention to inhibit DltA enzymatic activity was assessed using the DltA assays as described below:
(§2) The dltA gene was amplified from chromosomal DNA of S. aureus, E. faecalis, E. faecium and S. agalactiae and introduced into E. coli BL21 (Invitrogen, Carlsbad, Calif.) following manufacturer's instruction. Bacteria were grown at 37° C. under aerobic conditions and isopropyl-beta-D-thiogalactopyranoside (IPTG) was added to 0.5-1 mM when OD600 of the bacterial culture had reached 0.5. After a further incubation for 3 hours, cells were harvested by centrifugation. Purification of the recombinant DltA protein was performed by affinity chromatography on nickel-nitrilotriacetic acid (Ni-NTA) column following manufacturer's instructions (Qiagen). Fractions containing recombinant DltA protein were adjusted to 50% glycerol and stored at −20° C. until use.
(§3) The binding potency of the inhibitors against DltA enzyme was assessed by IC50 determination in an in vitro DltA activity assay. The assay buffer “AB” contained 50 mM Hepes pH8.0, 10 mM MgCl2, 50 mM KCl, 0.012% Triton-X100, 10 mM DTT and 100 nM Myelin-basic protein. The following components were added in a white polystyrene Costar plate up to a final volume of 30 μL: 3 μL DMSO, or inhibitor dissolved in DMSO and 27 μL DltA enzyme in AB. After 30 min of pre-incubation at room temperature, 30 μL of Substrates mix in AB were added in each well to a final volume of 60 μL. This reaction mixture was then composed of DltA (produced in house from S. aureus, E. faecalis, E. faecium and S. agalactiae), 0.5 mM D-Alanine (Sigma), 0.5-5 μM ATP (Sigma) and 0.05 u/ml inorganic pyrophosphatase (Sigma) in assay buffer. After typically 1-2 hours of incubation at room temperature (conversion rate around 30%), 30 μL of the revelation mix were added to a final volume of 90 μL, including the following constituents at the respective final concentrations: 10000 u/ml luciferase (Sigma), 30 μM D-luciferin (Sigma), 100 μM N-acetylcysteamine (Aldrich). Luminescence intensity was immediately measured on a Fluostar Optima (BMG) (excitation 360 nm, emission 520 nm) and converted into inhibition percentages. For IC50 determinations (Inhibitory Concentration 50%) the inhibitor was added at 6 to 10 different concentrations and the related inhibitions were fitted to a classical Langmuir equilibrium model using XLFIT (IDBS).
(§4) For compounds interfering with the luminescent signal (quenching), the same experiment without DltA enzyme was performed to allow quenching determination and correction.

The target of a further experiment is S. Agalactiae DltA (Streptococcus agalactiae serotype III (strain NEM316), UniProt Q8VM67). In words: in vitro DltA activity assay (luminescence), S. agalactiae DltA. The procedure: as §1, §2, §3, §4
The next experiment addresses E. feacium DltA (Enterococcus faecium, UniProt Q3XZT7). Kind of experiment: in vitro DltA activity assay (luminescence), E. faecium DltA. As to conditions: recombinant DltA, 30 min pre-incubation, 0.5 mM D-Alanine, 0.5-5 μM ATP; read-out: E. feacium DltA IC50. The protocol: as §1, §2, §3, §4
A further experiment addresses E. feacalis DltA (Enterococcus faecalis, UniProt Q830N0). Kind of experiment: in vitro DltA activity assay (luminescence), E. faecalis DltA. As to conditions: recombinant DltA, 30 min pre-incubation, 0.5 mM D-Alanine, 0.5-5 μM ATP; read-out: E. feacalis DltA IC50. The protocol: as §1, §2, §3, §4
Where [1] appears, read: recombinant DltA, 30 min pre-incubation, 0.5 mM D-Alanine, 0.5-5 μM ATP, read-out: S. Agalactiae DltA IC50.

Structures are written as SMILES. Structures can show the parent of a compound that is named as a salt. Where two headings read alike, the source gives them in different places.

E. feacium DltA, sequence (Q3XZT7 1-504): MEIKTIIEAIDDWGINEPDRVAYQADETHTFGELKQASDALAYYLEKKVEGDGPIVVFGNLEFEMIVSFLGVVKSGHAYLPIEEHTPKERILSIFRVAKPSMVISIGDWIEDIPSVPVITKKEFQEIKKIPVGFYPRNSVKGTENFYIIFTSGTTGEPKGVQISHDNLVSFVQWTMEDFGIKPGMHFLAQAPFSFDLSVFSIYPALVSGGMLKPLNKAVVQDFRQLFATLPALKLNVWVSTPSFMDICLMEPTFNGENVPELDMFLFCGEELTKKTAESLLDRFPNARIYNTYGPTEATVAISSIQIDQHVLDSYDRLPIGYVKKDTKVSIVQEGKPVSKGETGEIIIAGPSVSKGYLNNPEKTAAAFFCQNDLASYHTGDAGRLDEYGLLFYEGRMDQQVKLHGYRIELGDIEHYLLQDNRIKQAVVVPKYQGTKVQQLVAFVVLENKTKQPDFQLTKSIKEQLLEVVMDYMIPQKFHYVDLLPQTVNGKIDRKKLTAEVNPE
E. feacalis DltA, sequence (Q830N0 1-506): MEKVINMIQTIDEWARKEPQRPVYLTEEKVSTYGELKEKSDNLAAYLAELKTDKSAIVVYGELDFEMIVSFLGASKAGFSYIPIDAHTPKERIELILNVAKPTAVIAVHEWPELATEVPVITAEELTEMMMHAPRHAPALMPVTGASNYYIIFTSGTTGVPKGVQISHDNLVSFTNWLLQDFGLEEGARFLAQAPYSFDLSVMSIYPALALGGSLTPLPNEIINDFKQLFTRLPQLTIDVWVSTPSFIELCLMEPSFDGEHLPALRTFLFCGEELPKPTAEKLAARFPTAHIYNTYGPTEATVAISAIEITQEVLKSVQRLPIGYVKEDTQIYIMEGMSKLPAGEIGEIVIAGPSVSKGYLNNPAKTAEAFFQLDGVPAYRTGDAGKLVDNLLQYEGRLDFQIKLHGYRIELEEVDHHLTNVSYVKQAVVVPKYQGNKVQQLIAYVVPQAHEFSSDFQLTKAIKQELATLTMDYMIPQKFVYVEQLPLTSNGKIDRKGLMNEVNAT

The IC50 is the point on the concentration scale where inhibition reaches its midpoint. For `OCC1(CO)CCN(c2cc(-c3ccc4c(c3)ncn4C3CCCCC3)c3nc[nH]c3n2)CC1` [Example 6, {1-[7-(1-Cyclohexyl-1H-benzimidazol-5-yl)-3H-imidazo[4,5-b]pyridin-5-yl]-4-hydroxymethyl-piperidin-4-yl}-methanol], the concentration for half-maximal inhibition (IC50) at S. aureus DltA amounted to 11 nM; at S. Agalactiae DltA (setting [1]) it was 180 nM; at E. feacium DltA, 29 nM; on E. feacalis DltA, 18 nM.
On the same counts, the results for `CN(C)CCN(C)c1cc(-c2ccc3scnc3c2)c2nc[nH]c2c1C(N)=O` [Example 134, 7-Benzothiazol-5-yl-5-[(2-dimethylamino-ethyl)-methyl-amino]-3H-benzimidazole-4-carboxamide] are 250 nM, 1100 nM, 120 nM and 24 nM.
As for `CCn1cnc2cc(-c3cc(N(C)CCN(C)C)c(C(N)=O)c4[nH]cnc34)cc(OC)c21` [Example 152], the IC50 at S. aureus DltA was 13 nM; on S. Agalactiae DltA (setting [1]) it was 2200 nM; at E. feacium DltA it was 58 nM; at E. feacalis DltA, 16 nM.
The matching figures for `CN1CCCC(Oc2cc(-c3cnc4c(c3)CCCO4)c3nc[nH]c3c2C(N)=O)C1` (centres unmarked) [Example 208, 7-(3,4-dihydro-2H-pyrano[2,3-b]pyridin-6-yl)-5-[(1-methyl-3-piperidyl)oxy]-3H-benzimidazole-4-carboxamide methanesulfonic acid salt]: 230 nM, 1900 nM, 280 nM and 61 nM.
In the case of `O=C(O)c1c(N2CC[C@H](CO)C2)cc(-c2ccc3c(c2)ncn3C2CCCCC2)c2nc[nH]c12` [Example 55, 1′-Cyclohexyl-6-((S)-3-hydroxymethyl-pyrrolidin-1-yl)-1H,1′H-[4,5′]bibenzimidazolyl-7-carboxylic acid], the 50% inhibitory concentration (IC50) on S. aureus DltA was found to be 250 nM; at S. Agalactiae DltA (setting [1]) it was 760 nM; on E. feacium DltA, 360 nM; on E. feacalis DltA, 150 nM.
For the compound `CN(C)CCN(C)c1cc(-c2ccc3c(c2)ncn3C2CCCOC2)c2nc[nH]c2c1C(N)=O` (centres unmarked) [Example 123, 6-[(2-dimethylamino-ethyl)-methyl-amino]-1′-(tetrahydro-pyran-3-yl)-1H,1′H-[4,5′]bibenzimidazolyl-7-carboxamide], the half-inhibitory concentration (IC50) at S. aureus DltA stood at 6.9 nM; at S. Agalactiae DltA (setting [1]) it was 970 nM; at E. feacium DltA, 41 nM; on E. feacalis DltA, 8.2 nM.
On the same counts, the results for `NC(=O)c1c(N2CC[C@H](CO)C2)cc(-c2ccc3c(c2)ncn3C2CCCCC2)c2nc[nH]c12` [Example 64, 1′-Cyclohexyl-6-((S)-3-hydroxymethyl-pyrrolidin-1-yl)-1H,1′H-[4,5′]bibenzimidazolyl-7-carboxamide] are 65 nM, 710 nM, 68 nM and 27 nM.
As for `CCn1cnc2cc(-c3nc(N(C)CCN(C)C)c(C(N)=O)c4[nH]cnc34)ccc21` [Example 200, 6-[2-(dimethylamino)ethyl-methyl-amino]-4-(1-ethylbenzimidazol-5-yl)-1H-imidazo[4,5-c]pyridine-7-carboxamide], the IC50 turned out to be 22 nM at S. aureus DltA, 5400 nM on S. Agalactiae DltA (setting [1]), 800 nM on E. feacium DltA and 71 nM at E. feacalis DltA.
In the case of `CN1CCCC1COc1cc(-c2cnc3c(c2)CCCO3)c2nc[nH]c2c1C(N)=O` (centres unmarked) [Example 233, 7-(3,4-dihydro-2H-pyrano[2,3-b]pyridin-6-yl)-5-[(1-methylpyrrolidin-2-yl)methoxy]-3H-benzimidazole-4-carboxamide methanesulfonic acid salt], the IC50 on S. aureus DltA came out at 6.5 nM; on S. Agalactiae DltA (setting [1]), 130 nM; on E. feacium DltA, 24 nM; on E. feacalis DltA, 4.7 nM.
On the same counts, the results for `CN(C)CCN(C)c1cc(-c2ccc3c(c2)ncn3C2CCC(F)(F)CC2)c2nc[nH]c2c1C(N)=O` [Example 161, 1′-(4,4-Difluoro-cyclohexyl)-6-[(2-dimethylamino-ethyl)-methyl-amino]-1H,1′H-[4,5′]bibenzimidazolyl-7-carboxamide] are 13 nM, 1200 nM, 69 nM and 8.1 nM.
For `CN(CCO)c1cc(-c2cnc3c(c2)CCCO3)c2nc[nH]c2c1C(N)=O` [Example 177, 7-(3,4-Dihydro-2H-pyrano[2,3-b]pyridin-6-yl)-5-[(2-hydroxy-ethyl)-methyl-amino]-3H-benzimidazole-4-carboxamide], the IC50 at S. aureus DltA was 170 nM; at S. Agalactiae DltA (setting [1]) it was 1100 nM; at E. feacium DltA, 320 nM; on E. feacalis DltA it was 45 nM.
On the same counts, the results for `NC(=O)c1c(N2CC3CNCC3C2)cc(-c2ccc3c(c2)ncn3C2CCCCC2)c2nc[nH]c12` (centres unmarked) [Example 65, 1′-Cyclohexyl-6-(hexahydro-pyrrolo[3,4-c]pyrrol-2-yl)-1H,1′H-[4,5′]bibenzimidazolyl-7-carboxylic acid amide hydrochloride] are 66 nM, 1800 nM, 140 nM and 36 nM.
Consider `CN(C)CCN(C)c1cc(-c2cnc3c(c2)CCCO3)c2nc[nH]c2c1C(N)=O` [Example 144, 7-(3,4-Dihydro-2H-pyrano[2,3-b]pyridin-6-yl)-5-[(2-dimethylamino-ethyl)-methyl-amino]-3H-benzimidazole-4-carboxamide], for which the IC50 amounted to 39 nM at S. aureus DltA, 630 nM on S. Agalactiae DltA (setting [1]), 120 nM at E. feacium DltA and 17 nM at E. feacalis DltA.
`CN1CCC[C@@H]1COc1cc(-c2ccc3c(c2)ncn3C2CCCCC2)c2nc[nH]c2c1C(N)=O` [Example 236, 7-(1-cyclohexylbenzimidazol-5-yl)-5-[[(2R)-1-methylpyrrolidin-2-yl]methoxy]-3H-benzimidazole-4-carboxamide methanesulfonic acid salt]: the IC50 on S. aureus DltA was found to be 0.4 nM; at S. Agalactiae DltA (setting [1]), 91 nM; at E. feacium DltA, 3.6 nM; on E. feacalis DltA it was 1.4 nM.
On to `CN1CCN(c2cc(-c3ccc4c(c3)ncn4C3CCCCC3)c3nc[nH]c3c2C(N)=O)CC1` [Example 106, 1′-Cyclohexyl-6-(4-methyl-piperazin-1-yl)-1H,1′H-[4,5′]bibenzimidazolyl-7-carboxamide], for which the IC50 came out at 34 nM on S. aureus DltA, 500 nM at S. Agalactiae DltA (setting [1]), 76 nM at E. feacium DltA and 18 nM at E. feacalis DltA.
On to `CN1CCC[C@@H]1COc1cc(-c2ccc3c(c2)ncn3C2CCCOC2)c2nc[nH]c2c1C(N)=O` (stereo partly drawn) [Example 215, 5-[[(2R)-1-methylpyrrolidin-2-yl]methoxy]-7-(1-tetrahydropyran-3-ylbenzimidazol-5-yl)-3H-benzimidazole-4-carboxamide methanesulfonic acid salt], for which the IC50 at S. aureus DltA turned out to be 0.8 nM; on S. Agalactiae DltA, 86 nM; at E. feacium DltA it was 5.7 nM; on E. feacalis DltA, 1.4 nM.
Regarding `CN(C)CC1CCCN1c1cc(-c2ccc3c(c2)ncn3C2CCCCC2)c2nc[nH]c2c1C(N)=O` (centres unmarked) [Example 126, 1′-Cyclohexyl-6-(2-dimethylaminomethyl-pyrrolidin-1-yl)-1H,1′H-[4,5′]bibenzimidazolyl-7-carboxamide], the IC50 is 57 nM on S. aureus DltA, 1800 nM on S. Agalactiae DltA (setting [1]), 240 nM on E. feacium DltA and 56 nM at E. feacalis DltA.
